According to patent US10722575B2, “Use of 1,3-diphenylprop-2-en-1-one derivatives for treating liver disorders” (GENFIT, priority 2009, dated 2020):

Assays:
[1] = system: hApoE2 KI/PPARalpha KO mice; test: hApoE2 KI/PPARalpha KO mice on Western diet, hepatic gene expression by quantitative RT-PCR; format: in vivo; conditions: 30 mg/kg/day by gavage, 6 weeks
Procedure: (§1) The compounds of the General Formula (I) were tested in vivo in a high fat diet mice model. Dyslipidemic “humanized” hApoE2 KI deficient for PPARalpha were fed a Western diet and treated during 6 weeks. The compounds of interest, including the Compound 29 of WO 2004/005233 at 30 mg/kg/day and the Compound 1 of WO 2007/147879 at 30 mg/kg/day were orally administrated by gavage. At the end of the protocol, animals were sacrificed, livers were harvested and the hepatic expression of relevant genes implicated in the liver inflammation and the fibrosis processes were evaluated by quantitative RT-PCR. In parallel, liver triglycerides contents were evaluated (Panels A-D). Statistical analysis was performed as indicated for FIG. 1.
(§2) Animals were fed a Western diet (20% saturated fat and 0.2% cholesterol, Harlan Teklad TD88137) during 2 weeks in the first study, that involved the daily administration of Cpd 29 (at 30 mg/kg/day by oral gavage), and during 6 weeks in the second study, that involved the daily administration of Compound 1 of WO 2007147879 (Cpd1, at 30 mg/kg/day by oral gavage). Control animals were treated with vehicle only (Carboxymethlycellulose 1%+Tween-80 0.1%). Animals had access to food and water ad libitum.
At the end of the studies, the animals were weighed and sacrificed under anesthesia. Blood was collected from the retro-orbital sinus; plasma was obtained by centrifugation (4 000 rpm, at 4° C. for 15 min) and subsequently frozen and stored at −20° C. Tissues and livers were isolated and snap-frozen in liquid nitrogen and stored at −80° C. for subsequent analysis (gene expression and biochemistry) or fixed in 4% paraformaldehyde for histology.
Total RNA was isolated from frozen livers using the NucleoSpin® 96 RNA kit (Macherey Nagel), according to the manufacturer's instructions. Reverse transcription was performed on 1 μg of total RNA by action of 1 μl of MMLV-RT enzyme (Invitrogen) during 1 hour at 37° C. in a total volume of 30 μl. The reaction conditions were 1× buffer (Invitrogen), 1.5 mM DTT (Invitrogen), 0.18 mM dNTPs (Promega), 200 ng pdN6 (Amersham), 30U RNase inhibitor (Promega). Quantitative PCR was then carried out using the MyiQ Single-Color Real-Time PCR Detection System (Biorad). Briefly PCR reactions were performed in 96 well plates on 5 μl of diluted reverse transcription mix using the iQ SYBR Green Supermix kit. The reaction conditions were: 25 μl of volume reaction, 3 mM of MgCl2, and 0.5 μl of each reverse and forward primer solutions (10 pMol), Tm of 60° C.
The quantity of fluorescence emitted is directly proportional to the quantity of complementary DNA present at the start of the reaction and amplified during the PCR. The relative levels of expression were determined using the standard curve for each transcript. The results were then normalized in regard to the signals obtained with the 36B4 control (a reference transcript for hepatic gene expression). The induction factor, i.e. the ratio between the relative signal induced by the compound according to the invention and the average of the values relating to the control group, was then calculated for each sample. The higher this factor, the more the compound promotes target gene expression. The final result is depicted as the average of the induction values in each experimental group.
(§3) In another study, the liver-specific anti-inflammatory and anti-fibrotic properties effects of Cpd 29 and Compound 1 of WO 2007/147879 (Cpd 1) were evaluated in the hApoE2 KI/PPARalpha KO mice that were fed a Western diet and daily treated with the selected compounds during 6 weeks.

[2] = system: hApoE2 KI/PPARalpha KO mice; test: hApoE2 KI/PPARalpha KO mice on Western diet, hepatic lipid analysis (liver triglycerides); format: in vivo; conditions: 30 mg/kg/day by gavage, 6 weeks, FIG. 4D
Procedure: as §1
as §2, with “Control animals were treated with vehicle only (Carboxymethlycellulose 1%+Tween-80 0.1%). Animals had access to food and water ad libitum.” left out
as §3

CSc1ccc(C(=O)CCc2cc(C)c(OC(C)(C)C(=O)O)c(C)c2)cc1 [Cpd 1, 2-[2,6-dimethyl-4-[3-[4-(methylthio)phenyl]-3-oxo-propyl]phenoxy]-2-methylpropanoic acid]
liver expression of TNFα ([1]; FIG. 4A): inhibited | liver expression of TGFβ ([1]; FIG. 4B): inhibited | liver expression of collagen ([1]; FIG. 4C): inhibited | triglycerides accumulation in the liver [2]: prevented
